The target of this assay is T1, human GLP-1 receptor (Homo sapiens, UniProt P43220).
T1 construct: expressed in transfected cells
Briefly: GLP-1R cAMP Assay (HitHunter cAMP accumulation). It is filed as cell-based. The conditions noted are these: cAMP accumulation, CHO cells stably overexpressing human GLP-1 receptor, 30 min treatment; read-out: EC50. On the procedure: cAMP accumulation was measured in Chinese hamster ovary (CHO) cells stably overexpressing the human GLP-1 receptor using the HitHunter cAMP Assay for Small Molecules Kit (Eurofins). Briefly, cells were grown in Ham's F12 Nutrient Mix with 10% FBS, and lifted with Cell Dissociation Buffer, Enzyme free, PBS based (ThermoFisher). Cells were pelleted, and resuspended in Hank's buffered saline solution with 10 mM HEPES, and 625 μM 3-isobutyl-1-methylxanthine. The anti-cAMP antibody reagent was then added to cells at a 1:2 ratio and 5 μL of mixture was seeded in 384-well small volume white assay plates, at 10,000 cells/well. Cells were then treated with 50 nL compound using an ECHO 550 acoustic dispenser (Labcyte) in a 20-point dose response format in triplicate for 30 min. Cells were then lysed, and detection reagents added according to the manufacturer's protocol. After overnight incubation, luminescence was measured using a Perkin Elmer Envision plate reader. Dose response curves were analyzed using GraphPad Prism 9.0. […]

T1 sequence (P43220 24-463): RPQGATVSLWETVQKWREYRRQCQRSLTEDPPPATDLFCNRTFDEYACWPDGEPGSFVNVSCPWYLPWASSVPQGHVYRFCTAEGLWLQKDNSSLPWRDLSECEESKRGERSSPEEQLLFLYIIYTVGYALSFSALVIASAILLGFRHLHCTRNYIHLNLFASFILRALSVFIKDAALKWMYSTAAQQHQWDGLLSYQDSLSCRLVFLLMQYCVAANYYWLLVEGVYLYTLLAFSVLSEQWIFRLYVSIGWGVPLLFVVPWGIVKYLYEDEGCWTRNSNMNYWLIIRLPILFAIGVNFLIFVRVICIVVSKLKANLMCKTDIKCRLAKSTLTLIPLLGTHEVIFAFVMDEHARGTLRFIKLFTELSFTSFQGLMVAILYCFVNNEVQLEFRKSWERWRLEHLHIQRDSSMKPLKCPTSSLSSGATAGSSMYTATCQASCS

With `N#Cc1ccc(OCc2nc(C3=CCN(Cc4nc5c(F)cc(C(=O)O)cc5n4CC4(CF)CC4)C3)ccc2F)c(F)c1` [Compound 416, 2-[(3-{6-[(4-cyano-2-fluorophenoxy)methyl]-5-fluoropyridin-2-yl}-2,5-dihydro-1H-pyrrol-1-yl)methyl]-4-fluoro-1-{[1-(fluoromethyl)cyclopropyl]methyl)-1H-1,3-benzodiazole-6-carboxylic acid], the concentration for a half-maximal effect (EC50) was less than 50 nM.
To `C[C@H]1[C@@H](Oc2ccnc(COc3ccc(F)cc3C#N)n2)CN1Cc1nc2ccc(C(=O)O)cc2n1C[C@@H]1CCO1` [Compound 549, 2-{[(2S,3S)-3-({2-[(2-cyano-4-fluorophenoxy)methyl]pyrimidin-4-yl}oxy)-2-methylazetidin-1-yl]methyl}-1-{[(2S)-oxetan-2-yl]methyl}-1H-1,3-benzodiazole-6-carboxylic acid] belongs more than 500 nM; to `O=C(O)c1ccc2nc(CN3CC=C(c4cc(F)cc(COc5ccc(Cl)cc5F)c4)C3)n(C[C@@H]3CCO3)c2c1` [Compound 418, 2-[(3-{3-[(4-chloro-2-fluorophenoxy)methyl]-5-fluorophenyl}-2,5-dihydro-1H-pyrrol-1-yl)methyl]-1-{[(2S)-oxetan-2-yl]methyl}-1H-1,3-benzodiazole-6-carboxylic acid], less than 50 nM.
Turning to `N#Cc1cc(Cl)ccc1OCc1cc(OC2CN(Cc3nc4ccc(C(=O)O)cc4n3C[C@@H]3CCO3)C2)ccn1` [Example 193, (S)-2-((3-((2-((4-Chloro-2-cyanophenoxy)methyl)pyridin-4-yl)oxy)azetidin-1-yl)methyl)-1-(oxetan-2-ylmethyl)-1H-benzo[d]imidazole-6-carboxylic acid], the EC50 was less than 50 nM.
To `N#Cc1ccc(OCc2cccc(O[C@H]3CCN(Cc4nc5ccc(C(=O)O)cc5n4C[C@@H]4CCO4)C3)c2)c(F)c1` [Compound 350, 2-{[(3S)-3-{3-[(4-cyano-2-fluorophenoxy)methyl]phenoxy}pyrrolidin-1-yl]methyl}-1-{[(2S)-oxetan-2-yl]methyl}-1H-1,3-benzodiazole-6-carboxylic acid] belongs less than 50 nM; to `N#Cc1ccc(OCc2nc(N3CC[C@H](Cc4nc5c(F)cc(C(=O)O)cc5n4C[C@@H]4CCO4)C3)ccc2F)c(F)c1` [Compound 529], less than 50 nM; to `O=C(O)c1ccc2nc(CN3CC(Oc4cccc(COc5ccc(Cl)cc5Cl)c4)C3)n(Cc3ccno3)c2c1` [Compound 237, 2-[(3-{3-[(2,4-dichlorophenoxy)methyl]phenoxy}azetidin-1-yl)methyl]-1-[(1,2-oxazol-5-yl)methyl]-1H-1,3-benzodiazole-6-carboxylic acid], less than 50 nM.
Under `O=C(O)c1ccc2nc(CN3CC=C(c4ccnc(COc5ccc(Cl)cc5Cl)c4)C3)n(C[C@@H]3CCO3)c2c1` [Compound 402, 2-[(3-{2-[(2,4-dichlorophenoxy)methyl]pyridin-4-yl}-2,5-dihydro-1H-pyrrol-1-yl)methyl]-1-{[(2S)-oxetan-2-yl]methyl}-1H-1,3-benzodiazole-6-carboxylic acid] stands less than 50 nM; under `N#Cc1ccc(OCc2nc([C@@H]3C[C@@H](CF)N(Cc4nc5ccc(C(=O)O)cc5n4C[C@@H]4CCO4)C3)ccc2F)c(F)c1` (single isomer, unassigned) [Compound 527], less than 50 nM; under `O=C(O)c1ccc2nc(CN3CC=C(c4ccc(F)c(COc5ccc(Cl)cc5F)n4)C3)n(C[C@@H]3CCO3)c2c1` [Example 407, (S)-2-((3-(6-((4-Chloro-2-fluorophenoxy)methyl)-5-fluoropyridin-2-yl)-2,5-dihydro-1H-pyrrol-1-yl)methyl)-1-(oxetan-2-ylmethyl)-1H-benzo[d]imidazole-6-carboxylic acid], less than 50 nM.
As to `O=C(O)c1ccc2nc(CN3CC[C@H](c4ccc(F)c(COc5ccc(Cl)cc5F)n4)C3)n(C[C@@H]3CCO3)c2c1` (single isomer, unassigned) [Compound 517], the 50% effective concentration (EC50) was less than 50 nM.

(Values after patent US20220396569A1 (Carmot Therapeutics, Inc., priority 2021, published 2022).)
